Assay results from ChEMBL document CHEMBL1144945, “Development of progesterone receptor antagonists from 1,2-dihydrochromeno[3,4-f]quinoline agonist pharmacophore” (Bioorg Med Chem Lett, 2003).

Assays:
Progesterone receptor = molecular target: T1, Progesterone receptor (Homo sapiens, UniProt P06401); experiment: Effective concentration for human progesterone in T47D human breast cancer cell; assay type: cell-based, Cancer cell lines
T1 sequence (P06401 whole entry): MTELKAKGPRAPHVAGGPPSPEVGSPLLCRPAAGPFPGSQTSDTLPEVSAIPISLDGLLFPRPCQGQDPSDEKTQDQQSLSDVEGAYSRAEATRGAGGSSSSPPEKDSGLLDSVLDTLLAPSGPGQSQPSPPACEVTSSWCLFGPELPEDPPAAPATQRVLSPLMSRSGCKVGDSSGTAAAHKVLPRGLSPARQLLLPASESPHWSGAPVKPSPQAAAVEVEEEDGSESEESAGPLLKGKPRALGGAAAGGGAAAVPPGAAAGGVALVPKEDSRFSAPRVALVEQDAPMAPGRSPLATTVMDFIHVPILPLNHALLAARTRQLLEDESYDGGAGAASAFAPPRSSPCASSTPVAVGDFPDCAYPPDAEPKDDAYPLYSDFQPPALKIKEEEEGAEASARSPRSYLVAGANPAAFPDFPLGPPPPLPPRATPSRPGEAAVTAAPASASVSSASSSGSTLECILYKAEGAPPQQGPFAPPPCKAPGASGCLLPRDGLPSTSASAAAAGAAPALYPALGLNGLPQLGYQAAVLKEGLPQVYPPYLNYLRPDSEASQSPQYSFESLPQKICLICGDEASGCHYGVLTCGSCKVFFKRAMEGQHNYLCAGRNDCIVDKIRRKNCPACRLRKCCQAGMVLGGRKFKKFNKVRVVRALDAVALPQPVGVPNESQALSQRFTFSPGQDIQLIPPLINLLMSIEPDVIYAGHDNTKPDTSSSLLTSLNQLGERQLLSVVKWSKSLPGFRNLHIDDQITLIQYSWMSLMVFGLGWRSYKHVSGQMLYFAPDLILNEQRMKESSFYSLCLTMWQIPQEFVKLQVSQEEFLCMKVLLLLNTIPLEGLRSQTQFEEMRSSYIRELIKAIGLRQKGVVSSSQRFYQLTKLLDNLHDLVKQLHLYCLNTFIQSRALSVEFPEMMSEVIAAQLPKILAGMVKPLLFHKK

Androgen receptor = molecular target: T2, Androgen receptor (Homo sapiens, UniProt P10275); experiment: Inhibition of antagonist activity towards human androgen receptor; assay type: functional
T2 sequence (P10275 whole entry): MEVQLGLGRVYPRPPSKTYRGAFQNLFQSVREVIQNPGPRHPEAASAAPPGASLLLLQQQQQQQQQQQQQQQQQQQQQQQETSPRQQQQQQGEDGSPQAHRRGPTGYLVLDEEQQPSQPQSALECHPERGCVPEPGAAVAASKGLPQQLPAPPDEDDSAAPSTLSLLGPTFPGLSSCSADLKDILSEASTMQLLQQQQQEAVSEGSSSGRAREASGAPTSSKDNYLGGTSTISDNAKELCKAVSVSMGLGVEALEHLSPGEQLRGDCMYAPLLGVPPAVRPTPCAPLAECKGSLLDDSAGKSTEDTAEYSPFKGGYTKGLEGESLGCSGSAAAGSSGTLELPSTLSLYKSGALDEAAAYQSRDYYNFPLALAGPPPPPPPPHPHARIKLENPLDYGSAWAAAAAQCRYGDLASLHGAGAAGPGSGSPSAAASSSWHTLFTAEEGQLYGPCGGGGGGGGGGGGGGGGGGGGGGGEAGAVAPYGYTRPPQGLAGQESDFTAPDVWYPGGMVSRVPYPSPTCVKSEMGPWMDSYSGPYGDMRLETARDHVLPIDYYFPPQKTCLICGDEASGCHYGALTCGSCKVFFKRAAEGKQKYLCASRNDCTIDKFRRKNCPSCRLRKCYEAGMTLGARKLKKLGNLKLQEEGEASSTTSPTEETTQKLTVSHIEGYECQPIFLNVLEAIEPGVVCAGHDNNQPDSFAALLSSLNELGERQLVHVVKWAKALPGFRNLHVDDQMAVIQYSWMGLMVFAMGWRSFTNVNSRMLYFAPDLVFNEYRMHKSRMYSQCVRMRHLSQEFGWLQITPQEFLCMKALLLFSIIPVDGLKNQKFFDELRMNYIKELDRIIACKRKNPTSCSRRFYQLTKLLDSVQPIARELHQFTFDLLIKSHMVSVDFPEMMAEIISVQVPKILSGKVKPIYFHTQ

Compound	EC50 (Progesterone receptor)	IC50 (Androgen receptor)
CC1=CC(C)(C)Nc2ccc3c(c21)COc1c(F)cc(F)cc1-3	244 nM	
CC1CC(C)(C)Nc2ccc3c(c21)COc1c(F)cc(F)cc1-3 (configuration not stated)		147 nM
